From ChEMBL document CHEMBL3414499, “Characterization of two distinct structural classes of selective aldehyde dehydrogenase 1A1 inhibitors” (J Med Chem, 2015) come the findings set out here.

Molecules are shown by their SMILES. Active and inactive are the calls of the source. No cut-off for these calls is given here.

For assay [1], the target named is T1, Aldehyde dehydrogenase X, mitochondrial (Homo sapiens) (UniProt P30837).
T1 sequence (whole entry): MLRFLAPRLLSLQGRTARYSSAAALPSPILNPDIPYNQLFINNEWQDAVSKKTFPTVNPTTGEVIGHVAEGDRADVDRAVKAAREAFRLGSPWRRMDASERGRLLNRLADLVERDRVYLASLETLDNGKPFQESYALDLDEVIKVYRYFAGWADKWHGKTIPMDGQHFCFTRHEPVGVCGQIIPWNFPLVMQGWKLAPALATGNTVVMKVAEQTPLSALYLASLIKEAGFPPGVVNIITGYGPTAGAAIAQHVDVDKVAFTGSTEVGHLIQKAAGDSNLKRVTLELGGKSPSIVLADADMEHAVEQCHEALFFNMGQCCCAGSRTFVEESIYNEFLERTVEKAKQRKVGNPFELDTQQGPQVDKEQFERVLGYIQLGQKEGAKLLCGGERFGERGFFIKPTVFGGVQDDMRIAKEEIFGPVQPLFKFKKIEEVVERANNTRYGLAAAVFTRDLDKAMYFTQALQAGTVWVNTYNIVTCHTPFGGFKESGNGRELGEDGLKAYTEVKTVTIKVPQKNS
The assay can be described thus: Inhibition of recombinant human ALDH1B1 using propionaldehyde as substrate at 100 uM preincubated for 2 mins with NAD+ followed by substrate addition by UV-Vis spectrophotometric analysis.

Assay [2] concerns the target T2, Aldehyde dehydrogenase 1A1 (Homo sapiens) (UniProt P00352).
T2 sequence (whole entry): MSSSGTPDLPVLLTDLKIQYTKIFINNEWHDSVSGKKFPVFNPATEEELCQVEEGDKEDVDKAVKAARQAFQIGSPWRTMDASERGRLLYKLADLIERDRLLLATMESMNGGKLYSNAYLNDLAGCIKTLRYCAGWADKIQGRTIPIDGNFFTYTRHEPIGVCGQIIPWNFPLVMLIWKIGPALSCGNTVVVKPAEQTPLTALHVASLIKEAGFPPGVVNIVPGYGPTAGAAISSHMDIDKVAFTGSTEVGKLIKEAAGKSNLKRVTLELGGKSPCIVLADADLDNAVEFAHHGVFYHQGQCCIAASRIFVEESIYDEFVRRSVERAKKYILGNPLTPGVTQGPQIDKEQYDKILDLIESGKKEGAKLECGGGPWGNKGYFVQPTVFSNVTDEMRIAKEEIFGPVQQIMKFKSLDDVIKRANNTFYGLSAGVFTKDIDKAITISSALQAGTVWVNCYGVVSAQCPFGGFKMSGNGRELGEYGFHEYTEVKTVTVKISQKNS
The assay can be described thus: Inhibition of recombinant human ALDH1A1 using propionaldehyde as substrate at 100 uM preincubated for 2 mins with NAD+ followed by substrate addition by UV-Vis spectrophotometric analysis relative to control.

For another assay, the target named is T3, Retinal dehydrogenase 2 (Homo sapiens, UniProt O94788).
T3 sequence (O94788 whole entry): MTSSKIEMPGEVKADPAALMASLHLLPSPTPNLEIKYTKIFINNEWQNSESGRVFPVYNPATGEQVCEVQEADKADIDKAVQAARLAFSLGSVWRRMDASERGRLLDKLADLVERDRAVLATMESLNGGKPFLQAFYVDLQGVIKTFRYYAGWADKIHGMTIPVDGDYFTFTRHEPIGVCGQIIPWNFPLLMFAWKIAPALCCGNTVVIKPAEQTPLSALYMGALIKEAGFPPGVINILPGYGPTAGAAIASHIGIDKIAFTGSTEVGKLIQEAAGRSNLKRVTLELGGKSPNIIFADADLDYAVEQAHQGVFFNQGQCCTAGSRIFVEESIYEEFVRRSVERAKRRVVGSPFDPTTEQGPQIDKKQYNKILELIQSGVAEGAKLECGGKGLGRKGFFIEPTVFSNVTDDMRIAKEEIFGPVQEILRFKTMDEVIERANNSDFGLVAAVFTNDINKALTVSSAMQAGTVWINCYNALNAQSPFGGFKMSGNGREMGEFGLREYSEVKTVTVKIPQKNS
Briefly: Inhibition of recombinant human ALDH1A2 using propionaldehyde as substrate preincubated for 2 mins with NAD+ followed by substrate addition by UV-Vis spectrophotometric analysis.

The target in assay [3] is T4, Aldehyde dehydrogenase X, mitochondrial (Homo sapiens, UniProt P30837).
T4 sequence (P30837 whole entry): T1 sequence (whole entry)
The assay can be described thus: Inhibition of recombinant human ALDH1B1 using propionaldehyde as substrate preincubated for 2 mins with NAD+ followed by substrate addition by UV-Vis spectrophotometric analysis.

Assay [4] concerns the target T5, Aldehyde dehydrogenase, mitochondrial (Homo sapiens, UniProt P05091).
T5 sequence (P05091 whole entry): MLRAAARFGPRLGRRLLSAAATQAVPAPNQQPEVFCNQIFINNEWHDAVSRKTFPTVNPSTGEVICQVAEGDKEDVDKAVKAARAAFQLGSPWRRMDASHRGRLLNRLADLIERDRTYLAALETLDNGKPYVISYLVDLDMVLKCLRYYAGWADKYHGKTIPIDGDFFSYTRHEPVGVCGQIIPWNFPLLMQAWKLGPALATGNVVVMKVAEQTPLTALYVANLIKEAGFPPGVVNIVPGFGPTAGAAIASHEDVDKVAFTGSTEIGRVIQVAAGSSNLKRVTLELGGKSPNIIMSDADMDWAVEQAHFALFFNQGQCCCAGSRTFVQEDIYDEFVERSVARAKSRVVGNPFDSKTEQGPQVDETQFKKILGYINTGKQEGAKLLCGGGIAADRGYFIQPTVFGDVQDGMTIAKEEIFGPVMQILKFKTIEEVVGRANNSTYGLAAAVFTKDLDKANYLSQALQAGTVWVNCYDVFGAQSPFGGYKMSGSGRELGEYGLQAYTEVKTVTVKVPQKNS
Briefly: Inhibition of recombinant human ALDH2 using propionaldehyde as substrate preincubated for 2 mins with NAD+ followed by substrate addition by UV-Vis spectrophotometric analysis.

In assay [5] the target is T6, Retinaldehyde dehydrogenase 3 (Homo sapiens) (UniProt P47895).
T6 sequence (whole entry): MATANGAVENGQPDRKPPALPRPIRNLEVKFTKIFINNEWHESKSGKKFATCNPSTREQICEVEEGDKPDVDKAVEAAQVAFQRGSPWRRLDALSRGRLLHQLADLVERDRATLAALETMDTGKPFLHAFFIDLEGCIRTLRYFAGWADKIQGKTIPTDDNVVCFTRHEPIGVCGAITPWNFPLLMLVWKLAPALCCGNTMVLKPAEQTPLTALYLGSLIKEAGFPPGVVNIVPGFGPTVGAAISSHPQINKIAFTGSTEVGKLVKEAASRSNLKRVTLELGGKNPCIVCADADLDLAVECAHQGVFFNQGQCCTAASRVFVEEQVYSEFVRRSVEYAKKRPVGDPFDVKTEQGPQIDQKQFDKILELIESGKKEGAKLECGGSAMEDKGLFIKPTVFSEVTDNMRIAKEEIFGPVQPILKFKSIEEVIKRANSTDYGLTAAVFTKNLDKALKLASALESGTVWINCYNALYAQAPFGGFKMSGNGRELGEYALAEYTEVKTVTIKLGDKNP
The assay can be described thus: Inhibition of recombinant human ALDH1A3 using propionaldehyde as substrate at 100 uM preincubated for 2 mins with NAD+ followed by substrate addition by UV-Vis spectrophotometric analysis.

In the case of `Cn1c(=O)c2c(nc(SCC(N)=O)n2Cc2ccccc2F)n(C)c1=O`, the inhibition entry in assay [1] was “inactive”. Moreover, the Imax in assay [2] is < 70%.
Regarding `CCCCn1c(CN2CCN(c3cccc(Cl)c3)CC2)nc2c1c(=O)n(C)c(=O)n2C`, the IC50 (at Retinal dehydrogenase 2; in assay [3]; in assay [4]) was > 100 µM throughout.
With `Cn1c(=O)c2c(nc(CN3CCC(C(N)=O)CC3)n2CCCc2ccccc2)n(C)c1=O`, the inhibition entry in assay [5] was “inactive”. The IC50 in assay [3] and in assay [4] was > 100 µM throughout.
As to `Cn1c(=O)c2c(nc(N3CCN(Cc4ccccc4)CC3)n2Cc2cccc(Cl)c2)n(C)c1=O`, at Retinal dehydrogenase 2, the 50% inhibitory concentration (IC50) is > 100 µM.
For `CCN1CCN(Cc2nc3c(c(=O)n(C)c(=O)n3C)n2CC(=O)c2ccccc2)CC1`, the inhibition entry in assay [1] and in assay [5] was “inactive” in each case.
For the molecule `CCCCn1c(CN2CCN(c3ccc(OC)cc3)CC2)nc2c1c(=O)n(C)c(=O)n2C`, the half-maximal inhibitory concentration (IC50) in assay [3] is > 100 µM.
For `CC(C)CCn1c(CN2CCOCC2)nc2c1c(=O)n(C)c(=O)n2C`, in assay [5], the inhibition entry is “inactive”. In addition, the IC50 in assay [3] and in assay [4] was > 100 µM in each case.
Regarding `CC(C)CCn1c(CN(C)Cc2ccccc2)nc2c1c(=O)n(C)c(=O)n2C`, the 50% inhibitory concentration (IC50) (on Retinal dehydrogenase 2; in assay [3]; in assay [4]) was > 100 µM in each case. Also, the Imax in assay [2] is < 70%.
With `CCCCn1c(Oc2ccc(C(=O)OC)cc2)nc2c1c(=O)n(C)c(=O)n2C`, in assay [1], the inhibition result is “inactive”. The IC50 at Retinal dehydrogenase 2 was > 100 µM. For the same molecule, the Imax in assay [2] was < 70%.
As for `Cn1c(=O)c2c(nc(N3CCOCC3)n2Cc2ccccc2F)n(C)c1=O`, in assay [1], the inhibition entry was “inactive”.
